For test [1], the system named is CAN97-83-GFP1 (A2a) hMPV in H1-HeLa cells. Kind of test: hMPV H1-Hela EC50, anti-nucleoprotein ELISA (Example X). The test is classed as cell-based. The settings on record: human metapneumovirus, 96 h, read-out: hMPV H1-Hela EC50 (nM) (per Ex. X). On the procedure: The human metapneumoavirus (hMPV) anti-viral assay is an anti-nucleoprotein ELISA performed in infected H1-HeLa cells. H1-HeLa cells were maintained in Dulbecco's Modified Eagle's Medium with high glucose (Gibco, Cat #: 11995073) supplemented with 10% FBS (HyClone, Cat #: SH303396.03), 100 units/mL penicillin and 100 μg/mL streptomycin (Gibco, Cat #: 15140122). One day before infection, H1-HeLa cells were seeded into 96-well plates (Corning, Cat. #: 3903) at 0.1 mL/well at 1.5×10^5 cells/mL in Opti-MEM (Gibco, Cat #: 31985070) supplemented with 2% FBS, and were incubated at 37° C. in a 100% humid atmosphere containing 5% (v/v) CO2 overnight. On the next day, CAN97-83-GFP1 (A2a) hMPV was diluted in Opti-MEM medium containing 200 μg/mL CaCl2) and 2 μg/mL TPCK treated trypsin and distributed to the 96-well plates at 0.1 mL/well for an MOI=0.1. Test compounds were distributed to each well using a HP D300e digital dispenser with a final volume of 200 µL/well. After the plates were centrifuged at 700 g for one hour at room temperature, they were maintained in a humidified chamber at 37-C with 5% (v/v) CO2 for 96 hours. After the incubation, the medium was removed, and the plates were fixed with 0.1 mL/well 1% formaldehyde for 15 min at room temperature. The fixative was removed, the plates were air dried for 30-60 minutes, and then permeabilized with 0.1 mL/well 0.5% Triton X-100 in PBS for five minutes at room temperature. Following permeabilization, the plates were washed once with 0.1 mL/well blocking buffer consisting of 10% FBS (HyClone, Cat #: SH303396.03), 5% dry milk (AmericanBio, Cat #: AB10109-01000), and 0.1% Tween 20 (EMD Millipore, Cat #655204) in PBS. The plates were blocked with 0.1 mL/well blocking buffer for 60 minutes at 37° C. afterward. The blocking buffer was removed and 0.05 mL/well human metapneumovirus nucleocapsid antibody (Sigma, Cat #MAB80121) diluted 1:500 in Blocking buffer was added and incubated for two hours at 37-C. The plates were then washed with 0.2 mL/well 0.1% Tween 20/PBS five times, followed by addition of 0.05 mL/well of horseradish peroxidase (HRP) conjugated goat anti-mouse IgG antibody (Fisher Scientific, Cat #501077607) at 1:2000 dilution in the blocking buffer. After one-hour incubation at 37-C, plates were washed five times with 0.2 mL/well 0.1% tween 20 in PBS. The HRP signals were developed by adding 0.1 mL/well of TMB reagent (Thermo Scientific, Cat #: ENN301) and incubating at room until the positive control was apparent. At that point, the reaction was stopped by adding 0.1 mL/well TMB stop solution (SeraCare, Cat #: 5150-0021). The absorbance was measured at 450 nm with an EnVision plate reader. The relative absorbance was calculated by normalizing the absorbance of the compound-treated groups to that of the DMSO-treated groups (set as 100%). EC50 values were calculated using a nonlinear four parameter variable slope regression model.

For test [2], the system named is dengue virus type 2 in Huh7 hepatoblastoma cells. Description: Dengue Virus-2 Huh-7 EC50 (Example W). The test is classed as cell-based. The settings on record: MOI of 0.07, CPE, neutral red dye, read-out: Dengue Virus-2 Huh-7 EC50 (nM) (per Ex. W). On the procedure:
Huh7 hepatoblastoma cells were seeded onto 96-well plates and incubated at 37° C. with 5% CO2 overnight. The plates were seeded at a cell concentration that will yield >70% confluent monolayers in each well after overnight incubation. Eight 3-fold serial dilutions of compounds were diluted in test media (MEM supplemented with 2% FBS and 50 μg/mL gentamicin). The highest test compound concentration was 50 μg/mL. 100 μL of each concentration was added to 5 test wells on the 96-well plate. Of these 5 test wells, 3 wells of each dilution were infected with dengue virus type 2, diluted in test media (approximately 2000 CCID50 per well for an MOI of 0.07). Test medium (100 μL) with no virus was added to 2 wells to represent the uninfected cytotoxicity controls. Six additional infected wells received 100 μL media alone as untreated virus controls. Further, 100 μL of media alone was added to 6 uninfected wells to serve as uninfected, untreated controls. Cultures were incubated at 37° C.+5% CO2 until >80% CPE is observed. After cytopathic effect (CPE) is observed microscopically, 0.011% neutral red dye was added for approximately 2 hours. The neutral red dye was removed and wells were rinsed once with PBS to remove residual, unincorporated dye. A 50:50 Sorensen citrate buffer/ethanol solution was added and incubated at room temperature for >30 minutes with agitation, followed by measurement of neutral red dye using a spectrophotometer at 540 nm. The resulting optical density measurement was converted to percent signal of the infected, untreated cell control normalizing to virus controls. EC50 and CC50 values were determined by linear regression analysis.

As usually defined, the EC50 is the concentration giving half of the maximal effect. For `CCCCCCCCCCCCCCCCCCOC[C@H](COP(=O)(O)OC[C@@]1(C#N)O[C@@H](c2ccc3c(N)ncnn23)[C@H](O)[C@@H]1O)OCc1cc(F)cc(C#N)c1` [Compound 1, ((2R,3S,4R,5S)-5-(4-aminopyrrolo[2,1-f][1,2,4]triazin-7-yl)-2-cyano-3,4-dihydroxytetrahydrofuran-2-yl)methyl ((R)-2-((3-cyano-5-fluorobenzyl)oxy)-3-(octadecyloxy)propyl) hydrogen phosphate], the figures for the EC50 in test [1] and in test [2] were 440 nM and 9700 nM, respectively. On to `CCCCCCCCCCCCCCCCCCOC[C@H](COP(=O)(O)OC[C@@]1(C#N)O[C@@H](c2ccc3c(N)ncnn23)[C@H](O)[C@@H]1O)OCc1ccc(C#N)c(Cl)c1` [Compound 7, ((2R,3S,4R,5S)-5-(4-aminopyrrolo[2,1-f][1,2,4]triazin-7-yl)-2-cyano-3,4-dihydroxytetrahydrofuran-2-yl)methyl ((R)-2-((3-chloro-4-cyanobenzyl)oxy)-3-(octadecyloxy)propyl) hydrogen phosphate], for which the EC50 was determined as 358 nM in test [1] and 8700 nM in test [2].

`CCCCCCCCCCCCCCCCCCOC[C@H](COP(=O)(O)OC[C@@]1(C#N)O[C@@H](c2ccc3c(N)ncnn23)[C@H](O)[C@@H]1O)Oc1ccc(C#N)c(OC(C)C)c1` [Compound 23, ((2R,3S,4R,5S)-5-(4-aminopyrrolo[2,1-f][1,2,4]triazin-7-yl)-2-cyano-3,4-dihydroxytetrahydrofuran-2-yl)methyl ((R)-2-(4-cyano-3-isopropoxyphenoxy)-3-(octadecyloxy)propyl) hydrogen phosphate]: the EC50 in test [1] is 156 nM; in test [2], 8600 nM.

In the case of `CCCCCCCCCCCCCCCCCCC[C@H](COP(=O)(O)OC[C@@]1(C#N)O[C@@H](c2ccc3c(N)ncnn23)[C@H](O)[C@@H]1O)OCc1cc(F)cc(C#N)c1` [Compound 25, ((2R,3S,4R,5S)-5-(4-aminopyrrolo[2,1-f][1,2,4]triazin-7-yl)-2-cyano-3,4-dihydroxytetrahydrofuran-2-yl)methyl ((R)-2-((3-cyano-5-fluorobenzyl)oxy)henicosyl) hydrogen phosphate], the results for the EC50 in test [1] and in test [2] were 1280 nM and 9200 nM, respectively. The like results for `CCCCCCCCCCCCCCCCCCC[C@H](COP(=O)(O)OC[C@@]1(C#N)O[C@@H](c2ccc3c(N)ncnn23)[C@H](O)[C@@H]1O)OCc1ccc(C#N)c(OC(C)C)c1` [Compound 28, ((2R,3S,4R,5S)-5-(4-aminopyrrolo[2,1-f][1,2,4]triazin-7-yl)-2-cyano-3,4-dihydroxytetrahydrofuran-2-yl)methyl ((R)-2-((4-cyano-3-isopropoxybenzyl)oxy)henicosyl) hydrogen phosphate] were, in that order, 625 nM and 9500 nM. Turning to `CCCCCCCCCCCCCCCCCCOC[C@H](COP(=O)(O)OC[C@@]1(C#N)O[C@@H](c2ccc3c(N)ncnn23)[C@H](O)[C@@H]1O)OCc1cccc(C#N)n1` [Compound 68, ((2R,3S,4R)-5-(4-aminopyrrolo[2,1-f][1,2,4]triazin-7-yl)-2-cyano-3,4-dihydroxytetrahydrofuran-2-yl)methyl ((R)-2-((6-cyanopyridin-2-yl)methoxy)-3-(octadecyloxy)propyl) hydrogen phosphate], the EC50 in test [1] was found to be 214 nM.

Regarding `CCCCCCCCCCCCCCCCC[C@H](COP(=O)(O)OC[C@@]1(C#N)O[C@@H](c2ccc3c(N)ncnn23)[C@H](O)[C@@H]1O)OCc1cc(Cl)cc(C#N)c1` [Compound 76, ((2R,3S,4R)-5-(4-aminopyrrolo[2,1-f][1,2,4]triazin-7-yl)-2-cyano-3,4-dihydroxytetrahydrofuran-2-yl)methyl ((R)-2-((3-chloro-5-cyanobenzyl)oxy)nonadecyl) hydrogen phosphate], the EC50 in test [1] worked out at 517 nM. On the same count and under the same terms, the value for `CCCCCCCCCCCCCCCC[C@@H](COP(=O)(O)OC[C@@]1(C#N)O[C@@H](c2ccc3c(N)ncnn23)[C@H](O)[C@@H]1O)OCc1cc(F)cc(C#N)c1` [Compound 79, ((2R,3S,4R,5S)-5-(4-aminopyrrolo[2,1-f][1,2,4]triazin-7-yl)-2-cyano-3,4-dihydroxytetrahydrofuran-2-yl)methyl ((S)-2-((3-cyano-5-fluorobenzyl)oxy)octadecyl) hydrogen phosphate] was 1610 nM; that for `CCCCCCCCCCCCCCC[C@H](COP(=O)(O)OC[C@@]1(C#N)O[C@@H](c2ccc3c(N)ncnn23)[C@H](O)[C@@H]1O)OCc1cc(F)cc(C#N)c1` [Compound 80, ((2R,3S,4R,5S)-5-(4-aminopyrrolo[2,1-f][1,2,4]triazin-7-yl)-2-cyano-3,4-dihydroxytetrahydrofuran-2-yl)methyl ((R)-2-((3-cyano-5-fluorobenzyl)oxy)heptadecyl) hydrogen phosphate] was 668 nM; that for `CCCCCCCCCCCCCCCCCC[C@H](COP(=O)(O)OC[C@@]1(C#N)O[C@@H](c2ccc3c(N)ncnn23)[C@H](O)[C@@H]1O)OCc1cc(Cl)cc(C#N)c1` [Compound 81, ((2R,3S,4R,5S)-5-(4-aminopyrrolo[2,1-f][1,2,4]triazin-7-yl)-2-cyano-3,4-dihydroxytetrahydrofuran-2-yl)methyl ((R)-2-((3-chloro-5-cyanobenzyl)oxy)icosyl) hydrogen phosphate] was 453 nM. The same measure, in the same setting: the value for `CCCCCCCCCCCCCCCCCCC[C@H](COP(=O)(O)OC[C@@]1(C#N)O[C@@H](c2ccc3c(N)ncnn23)[C@H](O)[C@@H]1O)OCc1cc(Cl)cc(C#N)c1` [Compound 82, ((2R,3S,4R,5S)-5-(4-aminopyrrolo[2,1-f][1,2,4]triazin-7-yl)-2-cyano-3,4-dihydroxytetrahydrofuran-2-yl)methyl ((R)-2-((3-chloro-5-cyanobenzyl)oxy)henicosyl) hydrogen phosphate] was 1120 nM.

Regarding `CCCCCCCCCCCCCCCCCC[C@H](COP(=O)(O)OC[C@@]1(C#N)O[C@@H](c2ccc3c(N)ncnn23)[C@H](O)[C@@H]1O)OCc1cc(F)cc(C#N)c1` [Compound 84, ((2R,3S,4R,5S)-5-(4-aminopyrrolo[2,1-f][1,2,4]triazin-7-yl)-2-cyano-3,4-dihydroxytetrahydrofuran-2-yl)methyl ((R)-2-((3-cyano-5-fluorobenzyl)oxy)icosyl) hydrogen phosphate], in test [1], the EC50 worked out at 367 nM. With `CCCCCCCCCCCCCCCCOC[C@@H](COP(=O)(O)OC[C@@]1(C#N)O[C@@H](c2ccc3c(N)ncnn23)[C@H](O)[C@@H]1O)OCc1cc(F)cc(C#N)c1` [Compound 88, ((2R,3S,4R,5S)-5-(4-aminopyrrolo[2,1-f][1,2,4]triazin-7-yl)-2-cyano-3,4-dihydroxytetrahydrofuran-2-yl)methyl ((S)-2-((3-cyano-5-fluorobenzyl)oxy)-3-(hexadecyloxy)propyl) hydrogen phosphate], the EC50 in test [1] stood at 348 nM.
